The source of these data is patent publication US10940139B2, “Compounds that interact with the Ras superfamily for the treatment of cancers, inflammatory diseases, rasopathies, and fibrotic disease” (Shy Therapeutics LLC, priority 2017, dated 2021).

Assay in all cases: Ras GTP binding domain inhibition assay (labeled GTP)
Common to all, as to settings: 20 μM compound

The target of one experiment is KRas wild type (Homo sapiens (Human), UniProt P01116). The essentials: (§1)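 Fluorescence read-out of Cy3-/Cy5-GTP remaining bound to nickel-immobilized His-KRas after washes. Protein was coated overnight at 4° C, then exposed to compound for 3 h at room temperature before a 45 min labeled-GTP incubation.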
Another experiment concerns the target KRas G12C mutant (Homo sapiens (Human), UniProt P01116, G12C). Put shortly: as §1
Experiment [1] deals with KRas G12C/Q61H double mutant (Homo sapiens (Human), UniProt P01116, G12C/Q61H). The essentials: as §1
Experiment [2] concerns the target KRas G12D/Q61H double mutant (Homo sapiens (Human), UniProt P01116, G12D/Q61H). The essentials: as §1
A further experiment has as its target KRas Q61H mutant (Homo sapiens (Human), UniProt P01116, Q61H). Put shortly: as §1
The next experiment deals with KRas G12D mutant protein (Homo sapiens (Human), UniProt P01116, G12D).
The mark [3] stands for this setting: KRas wild type, read-out: % Inhibition at 20 μM of K-Ras mutant and wild-type protein, KRas wild type.
[4] abbreviates: KRas G12C, read-out: % Inhibition at 20 μM of K-Ras mutant and wild-type protein, KRas G12C.
Where [5] appears, read: KRas G12C/Q61H double mutant, read-out: % Inhibition at 20 μM of K-Ras mutant and wild-type protein, KRas G12C Q61H.
Where [6] appears, read: KRas G12D/Q61H double mutant, read-out: % Inhibition at 20 μM of K-Ras mutant and wild-type protein, KRas G12D Q61H.
[7] abbreviates: KRas Q61H, read-out: % Inhibition at 20 μM of K-Ras mutant and wild-type protein, KRas Q61H.
[8] abbreviates: KRas G12D, read-out: % Inhibition at 20 μM of K-Ras mutant and wild-type protein, KRas G12D.
The mark [9] stands for this setting: read-out: % Inhibition at 20 μM KRas wild type.
[10] abbreviates: read-out: % Inhibition at 20 μM KRas G12C.
The mark [11] stands for this setting: read-out: % Inhibition at 20 μM KRas G12C Q61H.
The mark [12] stands for this setting: read-out: % Inhibition at 20 μM KRas G12D Q61H.
[13] abbreviates: read-out: % Inhibition at 20 μM KRas Q61H.
The mark [14] stands for this setting: read-out: % Inhibition at 20 μM KRas G12D.

Where two headings read alike, the source gives them in different places.

Chain of KRas G12D/Q61H double mutant (P01116-2 other isoform, or with tags, fused parts or gaps G12D/Q61H): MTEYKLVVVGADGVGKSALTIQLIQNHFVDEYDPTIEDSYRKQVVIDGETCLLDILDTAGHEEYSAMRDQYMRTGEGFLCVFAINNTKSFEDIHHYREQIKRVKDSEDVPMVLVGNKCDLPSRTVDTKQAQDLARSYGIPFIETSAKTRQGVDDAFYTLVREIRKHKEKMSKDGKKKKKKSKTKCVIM
Chain of KRas G12D mutant protein (P01116-2 other isoform, or with tags, fused parts or gaps G12D): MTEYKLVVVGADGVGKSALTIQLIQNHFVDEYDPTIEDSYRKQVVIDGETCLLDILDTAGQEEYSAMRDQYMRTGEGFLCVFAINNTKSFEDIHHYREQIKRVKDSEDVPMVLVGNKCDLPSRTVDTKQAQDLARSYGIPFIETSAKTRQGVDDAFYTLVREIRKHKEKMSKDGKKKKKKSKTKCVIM
Chain of KRas wild type (P01116-2 other isoform, or with tags, fused parts or gaps): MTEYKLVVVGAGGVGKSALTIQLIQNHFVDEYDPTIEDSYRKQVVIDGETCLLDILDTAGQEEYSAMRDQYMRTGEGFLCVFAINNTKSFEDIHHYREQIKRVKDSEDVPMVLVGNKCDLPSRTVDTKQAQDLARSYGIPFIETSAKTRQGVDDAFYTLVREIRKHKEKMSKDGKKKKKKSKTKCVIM
Chain of KRas G12C mutant (P01116-2 other isoform, or with tags, fused parts or gaps G12C): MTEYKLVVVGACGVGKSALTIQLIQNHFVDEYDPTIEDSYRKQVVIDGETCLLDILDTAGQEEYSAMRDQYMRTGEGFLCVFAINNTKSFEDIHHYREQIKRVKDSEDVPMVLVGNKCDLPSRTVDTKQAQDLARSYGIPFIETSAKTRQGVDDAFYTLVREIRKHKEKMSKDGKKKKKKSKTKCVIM
Chain of KRas Q61H mutant (P01116-2 other isoform, or with tags, fused parts or gaps Q61H): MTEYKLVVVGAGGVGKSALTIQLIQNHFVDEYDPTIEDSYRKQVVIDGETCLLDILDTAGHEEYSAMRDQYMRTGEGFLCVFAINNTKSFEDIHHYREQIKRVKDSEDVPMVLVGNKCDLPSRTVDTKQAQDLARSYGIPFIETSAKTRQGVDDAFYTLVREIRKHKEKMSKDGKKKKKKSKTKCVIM
Chain of KRas G12C/Q61H double mutant (P01116-2 other isoform, or with tags, fused parts or gaps G12C/Q61H): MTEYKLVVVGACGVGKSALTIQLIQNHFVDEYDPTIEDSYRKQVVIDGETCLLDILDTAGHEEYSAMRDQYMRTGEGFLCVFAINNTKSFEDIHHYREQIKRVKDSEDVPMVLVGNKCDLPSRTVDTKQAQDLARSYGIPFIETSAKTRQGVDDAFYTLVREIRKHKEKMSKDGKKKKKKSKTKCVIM

As a reminder, the inhibition is the percentage by which the read-out fell short of the control. Regarding `COc1cnc(-c2cn(C)cn2)nc1O` [drawing 3496], the inhibition at 20 µM at KRas wild type (setting [3]) is 25 to 50%; on KRas G12C mutant (setting [4]) it was 51 to 75%; in experiment [1] (setting [5]) it was 51 to 75%; in experiment [2] (setting [6]), 51 to 75%; on KRas Q61H mutant (setting [7]), 76 to 100%; on KRas G12D mutant protein (setting [8]), 51 to 75%.

Consider `CC(C)(O)c1ccc(-c2csc3c(O)nc(-c4ccccn4)nc23)c(F)c1` [drawing 2880], for which the inhibition at 20 µM (on KRas wild type (setting [9]); on KRas G12C mutant (setting [10]); in experiment [1] (setting [11]); in experiment [2] (setting [12]); at KRas Q61H mutant (setting [13]); at KRas G12D mutant protein (setting [14])) was 51 to 75% in each case.

For the molecule `Oc1nc(-c2ccccn2)nc2c(-c3ccccn3)csc12` [drawing 2896], the inhibition at 20 µM on KRas wild type (setting [9]) is 51 to 75%; at KRas G12C mutant (setting [10]), 25 to 50%; in experiment [1] (setting [11]), 51 to 75%; in experiment [2] (setting [12]), 1 to 25%; at KRas Q61H mutant (setting [13]), 25 to 50%; on KRas G12D mutant protein (setting [14]) it was 25 to 50%.

As to `Cc1sc2c(O)nc(-c3ccccn3)nc2c1-c1cccnc1` [drawing 3468], the inhibition at 20 µM at KRas wild type (setting [3]) lay in the range of 25 to 50%; at KRas G12C mutant (setting [4]) it was 25 to 50%; in experiment [1] (setting [5]), 51 to 75%; in experiment [2] (setting [6]), 25 to 50%; at KRas Q61H mutant (setting [7]) it was 51 to 75%; on KRas G12D mutant protein (setting [8]), 51 to 75%.

For `Oc1nc(-c2ccccn2)nc2c(-c3ccc(F)cc3F)csc12` [drawing 2871], the inhibition at 20 µM at KRas wild type (setting [9]) lay in the range of 25 to 50%; at KRas G12C mutant (setting [10]), 25 to 50%; in experiment [1] (setting [11]) it was 51 to 75%; in experiment [2] (setting [12]), 51 to 75%; at KRas Q61H mutant (setting [13]), 51 to 75%; at KRas G12D mutant protein (setting [14]), 51 to 75%.

For `OCC1(c2ccc(-c3csc4c(O)nc(-c5ccccn5)nc34)cc2)CC1` [drawing 2886], the inhibition at 20 µM is 76 to 100% on KRas wild type (setting [9]); 25 to 50% on KRas G12C mutant (setting [10]); 51 to 75% in experiment [1] (setting [11]); 51 to 75% in experiment [2] (setting [12]); 51 to 75% on KRas Q61H mutant (setting [13]); 76 to 100% on KRas G12D mutant protein (setting [14]).

`COc1cccc(CN2CCN(C(=O)c3csc4c(O)nc(-c5ccccn5)nc34)CC2)c1` [drawing 2763]: the inhibition at 20 µM on KRas wild type (setting [9]) was 25 to 50%; on KRas G12C mutant (setting [10]), 25 to 50%; in experiment [1] (setting [11]), 76 to 100%; in experiment [2] (setting [12]), 25 to 50%; on KRas Q61H mutant (setting [13]), 76 to 100%; on KRas G12D mutant protein (setting [14]), 76 to 100%.

As to `COc1cnc(-c2cn(C)cn2)nc1O` [drawing 3512], at KRas wild type (KRas wild type), the “% Inhibition at 20 μM of K-Ras mutant and wild-type protein, KRas wild type” value is reported as “B (25-50% inhibition)”. Also, the “% Inhibition at 20 μM of K-Ras mutant and wild-type protein, KRas G12C” value on KRas G12C mutant (KRas G12C) is reported as “C (51-75% inhibition)”. The “% Inhibition at 20 μM of K-Ras mutant and wild-type protein, KRas G12C Q61H” value in experiment [1] (KRas G12C/Q61H double mutant) is recorded as “C (51-75% inhibition)”. Besides, the “% Inhibition at 20 μM of K-Ras mutant and wild-type protein, KRas G12D Q61H” value in experiment [2] (KRas G12D/Q61H double mutant) is on record as “C (51-75% inhibition)”. Besides, the “% Inhibition at 20 μM of K-Ras mutant and wild-type protein, KRas Q61H” value at KRas Q61H mutant (KRas Q61H) is recorded as “D (76-100% inhibition)”. The “% Inhibition at 20 μM of K-Ras mutant and wild-type protein, KRas G12D” value on KRas G12D mutant protein (KRas G12D) is “C (51-75% inhibition)”.

As for `Oc1cccc(-c2csc3c(O)nc(-c4ccccn4)nc23)n1` [drawing 3498], the inhibition at 20 µM lay in the range of 51 to 75% on KRas wild type (setting [3]); 25 to 50% on KRas G12C mutant (setting [4]); 51 to 75% in experiment [1] (setting [5]); 51 to 75% in experiment [2] (setting [6]); 76 to 100% on KRas Q61H mutant (setting [7]); 25 to 50% at KRas G12D mutant protein (setting [8]).

On to `O=C(c1csc2c(O)nc(-c3ccccn3)nc12)N1CCC(c2ccncc2)C1` (stereo not drawn) [drawing 2839], for which the inhibition at 20 µM (on KRas wild type (setting [9]); on KRas G12C mutant (setting [10]); in experiment [1] (setting [11]); in experiment [2] (setting [12]); at KRas Q61H mutant (setting [13]); on KRas G12D mutant protein (setting [14])) was 51 to 75% throughout.

Consider `O=C(O)c1cc2nc(-c3ccccn3)nc(O)c2s1` [drawing 2850], for which the inhibition at 20 µM (on KRas wild type (setting [9]); at KRas G12C mutant (setting [10]); in experiment [1] (setting [11]); in experiment [2] (setting [12]); on KRas Q61H mutant (setting [13]); on KRas G12D mutant protein (setting [14])) was 51 to 75% each time.
